In general, IC50 refers to the midpoint of a concentration-inhibition curve.

Structures are written as SMILES. The source made the active and inactive calls. How the calls were made is not given here. A value given as a limit tells only on which side of the number the result lay.

This assay relates to HEK-293T NF-kB luciferase reporter counterscreen, luminescence. Kind of assay: inhibitors of HEK-293T NF-kB luciferase – HEK-293T cells, luminescence, counter-screen for T-cell antigen receptor NF-kB inhibitors, dose response (AID 489041).
On to `CSc1ccc(COC(=O)c2cc([N+](=O)[O-])ccc2N2CCOCC2)cc1`, for which the IC50 is 1.7 µM. The result for `COc1ccc(C(=O)c2ccc(N(C)C)cc2)c(OC)c1` reads 71.1 µM (inactive); that for `CCCc1cc(C(=O)Nc2cc(C)ccc2O)no1`, > 80 µM (inactive). On to `CC1=CC(C)(C)N(S(=O)(=O)c2ccc(C)cc2)c2cc(C)ccc21`, for which the IC50 was 2.17 µM.

With `Cc1ccc(S(=O)(=O)NCc2ccncc2)cc1C`, the IC50 is 15.5 µM.

`CC(C)(C)c1nnc(N/N=C/c2ccccc2O)n(N)c1=O`: the IC50 is 28 µM (inactive).

On to `COc1ccc(C(=O)N(C)Cc2cnn(Cc3ccccc3)c2)cc1S(=O)(=O)N1CCOCC1`, for which the IC50 is 22.9 µM (inactive).

In the case of `CCOC(=O)C(C)Oc1cccc2c(=O)n(CC(=O)NCc3ccccc3)ccc12` (stereo not given), the IC50 is 0.78 µM. For the molecule `O=C(Nc1ccc(S(=O)(=O)N2CCCC2)cc1)c1ccc(CN2CCc3ccccc3C2)cc1`, the IC50 is 0.73 µM. Regarding `Cc1ccc(NC(=O)Nc2ccnc(-c3cccnc3)n2)cc1`, the IC50 is > 80 µM (inactive). As to `COc1cc(NS(=O)(=O)c2ccc(OC)c(C)c2C)c(OC)cc1Cl`, the IC50 is 5.28 µM. For `COc1ccc(-n2nnnc2-c2ccccc2)cc1`, the IC50 is > 80 µM (inactive). For `CCOc1ccc2c(c1)OC(c1ccc(C)cc1)(C(F)(F)F)NC2=O` (stereo not given), the IC50 is 5.57 µM.

With `Cc1ccc2oc(/N=C(\N)NC(=O)C(C)(C)C)nc2c1`, the half-inhibitory concentration (IC50) was < 0.16 µM. In the case of `CCOC(=O)C(C)Oc1cccc2c(=O)n(CC(=O)NCc3ccc4c(c3)OCO4)ccc12` (stereo not given), the 50% inhibitory concentration (IC50) was 2.23 µM. The result for `O=C(Nc1nc2ccc(S(=O)(=O)N3CCCC3)cc2s1)C1CCCCC1` reads 2.8 µM; that for `CCn1c2ccccc2c2cc(Nc3cc(C)nc4ncnn34)ccc21`, 1.34 µM. For the molecule `O=C(c1ccccc1-c1ccccc1)N1CCN(c2ccccn2)CC1`, the IC50 was > 80 µM (inactive). Take `Cc1ccc2nc(-c3ccc4c(c3)OCCO4)cn2c1`: the IC50 was 2.34 µM. In the case of `O=C(Nc1ccc(S(=O)(=O)Nc2ccccc2)cc1)c1ccc(CN2CCOCC2)cc1`, the IC50 was 5.23 µM. On to `CCOC(=O)c1ccc2nc(Nc3nc4ccc(F)cc4s3)sc2c1`, for which the 50% inhibitory concentration (IC50) is 1.14 µM. For `COc1ccc(OC)c(COC(=O)c2cc([N+](=O)[O-])ccc2N2CCOCC2)c1`, the IC50 was 52.4 µM (inactive). Consider `O=C(CNC(=O)c1ccco1)N=Nc1c(O)n(CCc2ccccc2)c2ccccc12`, for which the IC50 is 5.17 µM. As for `Cc1ccc(O)c(N=Nc2nccs2)c1`, the IC50 is > 80 µM (inactive). For the molecule `Cc1cccc(N(C)S(=O)(=O)c2ccc(-c3cnc(C4CC4)o3)cc2)c1`, the IC50 was 0.57 µM. Regarding `CCn1c2ccccc2c2cc(NC(=O)c3cc(OC)cc(OC)c3)ccc21`, the IC50 is > 80 µM (inactive). The result for `CCOCCOC(=O)c1[nH]c2c(c1C)C(=O)CC(c1cccs1)C2` (stereo not given) reads 4.6 µM; that for `C=CCOC(=O)c1[nH]c2c(c1C)C(=O)CC(c1ccco1)C2` (stereo not given), < 0.16 µM. Take `CCCCCCCCCCn1ccc(=N)cc1`: the IC50 is 0.61 µM. For the molecule `COc1cccc(/C=N/NC(=O)c2[nH]nc3c2CCc2ccccc2-3)c1O`, the IC50 is 0.21 µM. With `CCOc1ccccc1NC(=O)CN(c1ccc(OC)cc1)S(=O)(=O)c1c(C)noc1C`, the half-inhibitory concentration (IC50) was 16.9 µM.

For `CCN(CC)c1ccc2nc3ccc(N)cc3[n+](-c3ccccc3)c2c1`, the IC50 is 2.72 µM. With `C=C1C(=O)O[C@H]2C[C@@H](C)[C@@H]3C=CC(=O)[C@@]3(C)C[C@H]12`, the IC50 is 5.84 µM.

For the molecule `O=C(/C=C/c1cccc([N+](=O)[O-])c1)n1cnc2ccccc21`, the IC50 was 51.3 µM (inactive). With `CC(C)n1c(CN(C)Cc2ccccc2)nc2c1c(=O)n(C)c(=O)n2C`, the IC50 is 2.88 µM. Consider `COc1ccc2c(c1)/C(=C/c1cnc[nH]1)C(=O)N2`, for which the IC50 was 0.7 µM. On to `Cc1cccc(OCCNC(=O)c2ccc(Cl)c(S(=O)(=O)NCc3cccnc3)c2)c1`, for which the IC50 is 10.1 µM. On to `Cc1noc(C)c1COc1ccc(C(=O)NNC(=O)c2ccccc2F)cc1`, for which the IC50 was 30.3 µM (inactive).

On to `CC(C)Nc1ccc(C(CC(N)=O)NC(=O)c2ccc(Br)cc2)cc1[N+](=O)[O-]` (stereo not given), for which the IC50 is > 80 µM (inactive). Regarding `CCN1/C(=C/c2ccc3ccccc3[n+]2CC)C=Cc2ccccc21`, the IC50 was 1.01 µM. Consider `Cc1ccc(NC(=O)C2=C(c3ccccc3)S(=O)(=O)CCS2(=O)=O)cc1`, for which the IC50 is 8.74 µM. Consider `CCOC(=O)c1ccccc1NC(=O)Cn1c(-c2nonc2N)nc2ccccc21`, for which the IC50 is 0.47 µM.

Consider `O=[N+]([O-])c1ccc(O)c(/C=N/Nc2ccc(Cl)nn2)c1`, for which the IC50 was > 80 µM (inactive).

As to `C/C=C(\C)C(=O)N[C@@H](c1ccccc1)[C@@H](O)C(=O)O[C@H]1C[C@@]2(O)[C@@H](OC(=O)c3ccccc3)C3[C@](C)(C(=O)[C@H](O)C(=C1C)C2(C)C)[C@@H](O)C[C@H]1OC[C@@]31OC(C)=O` (stereo not given in full), the IC50 is > 80 µM (inactive). In the case of `CS(=O)(=O)c1ccc(Sc2nc3ccccc3s2)c([N+](=O)[O-])c1`, the half-maximal inhibitory concentration (IC50) was 17.1 µM. Take `Cc1c(C(=O)OCC(C)C)[nH]c2c1C(=O)CC(c1cccs1)C2` (stereo not given): the IC50 is 0.41 µM. The result for `CC#CC(=O)N1CCC(n2nccc2NC(=O)c2ccc3c(c2)OCO3)CC1` reads > 80 µM (inactive). `CCOC(=O)c1ccc(Nc2nc(N)c3cc(OC)c(OC)cc3n2)cc1`: the IC50 was > 80 µM (inactive). Consider `CN(C)c1ccc(-[n+]2c(-c3ccccc3)cc(-c3ccccc3)cc2-c2ccccc2)cc1`, for which the IC50 is 1.48 µM. As to `Nc1nc2n[nH]nc2c(=O)[nH]1`, the IC50 is > 80 µM (inactive). For the molecule `O=C(Nc1ccc(C(F)(F)F)cc1)c1cccn(Cc2ccc3c(c2)OC(F)(F)O3)c1=O`, the IC50 was 22.5 µM (inactive). Consider `COC(=O)C(Cc1ccc(N(CCCl)CCCl)cc1)N=Cc1ccccc1O` (stereo not given), for which the IC50 was 43.4 µM (inactive). As for `COc1cc(/C=C/c2ccc3cccc(O)c3n2)cc(OC)c1OC`, the IC50 is > 80 µM (inactive). In the case of `Cc1ccc(Nc2cc(C)nn2-c2nc(C)cc(=O)[nH]2)cc1`, the IC50 is > 80 µM (inactive). For the molecule `Cc1cccc(NS(=O)(=O)c2ccc(-c3cnc(C4CC4)o3)cc2)c1C`, the IC50 is 1.7 µM. For the molecule `Cc1ccc(Nc2nc(-c3c(C)nc4ncccn34)cs2)cc1`, the half-inhibitory concentration (IC50) was 1 µM. For `O=C(Nc1ccc(F)cc1)c1ccc(CN2CCc3ccccc3C2)cc1`, the IC50 is 4.71 µM. On to `CC(=O)N1c2ccc(S(=O)(=O)N3CCC(C(=O)Nc4cccc(C)n4)CC3)cc2CC1C` (stereo not given), for which the IC50 was 5.57 µM. Consider `C=CC[C@@H](CC/C=C/C=C/CC/C=C\[C@@H]1CSC([C@@H]2C[C@@H]2C)=N1)OC`, for which the IC50 is 3.72 µM.

Consider `O=S(=O)(Nc1cccc2ncccc12)c1cccs1`, for which the IC50 was > 80 µM (inactive). In the case of `Oc1ccc2ccccc2c1/C=N/Nc1nnc(-c2ncc[nH]2)c2ccccc12`, the IC50 is 0.52 µM.

Consider `O=C1C=C(c2ccc3ncccc3c2)C[C@@H](c2ccc3c(c2)OCO3)C1`, for which the IC50 was 11.1 µM.

As for `CCCCCC(=O)N[C@@H](c1ccccc1)[C@@H](O)C(=O)O[C@H]1C[C@@]2(O)[C@@H](OC(=O)c3ccccc3)C3[C@](C)(C(=O)[C@H](OC(C)=O)C(=C1C)C2(C)C)[C@@H](O)C[C@H]1OC[C@@]31OC(C)=O` (stereo not given in full), the IC50 is > 80 µM (inactive).

With `Cc1ccc(C)c(N=Nc2ccc(O)c3ncccc23)c1`, the IC50 was 21 µM (inactive).

Turning to `COc1cc(C2=NOC(C(=O)NCc3ccc(F)cc3)C2)cc(OC)c1OC` (stereo not given), the concentration for half-maximal inhibition (IC50) was 6.34 µM. Take `O=C(NCCc1ccccc1)c1ccc2c(c1)OCCO2`: the IC50 is 1.3 µM.

Turning to `CCN1C/C(=C/c2ccc(OC)c(O)c2)C(=O)/C(=C/c2ccc(OC)c(O)c2)C1`, the IC50 is 39 µM (inactive).

Consider `CC(C)CC[n+]1ccccc1/C=C/c1ccc(N(C)C)cc1`, for which the IC50 is 1.62 µM. On to `COc1cc(CC(=O)OCC(=O)c2ccc3c(c2)OCCO3)cc(OC)c1OC`, for which the IC50 was 0.67 µM. Turning to `COc1ccc(CCN2C(=O)C3C4C=CC(C3C2=O)C2C(=O)N(CCc3ccc(OC)c(OC)c3)C(=O)C42)cc1OC` (stereo not given), the IC50 was 5.01 µM. Consider `Cc1ccc(/C=N/NC(=O)c2c(C)nc3ccc(Br)cn23)cc1`, for which the IC50 is > 80 µM (inactive). Take `COc1ccccc1C(=O)N(CCC1CCCN1C)c1nc2ccccc2s1` (stereo not given): the IC50 is 18.6 µM. Under `CCOC(=O)C(C)Oc1cccc2c(=O)n(CC(=O)NCc3ccco3)ccc12` (stereo not given) stands 7.92 µM. `Cc1cccc(N2CCN(C(=O)c3ccc4[nH]c(C)c(C)c4c3)CC2)c1C`: the IC50 is 19.2 µM. As for `COc1cc(Cn2c(-c3nonc3N)nc3ccccc32)ccc1C`, the IC50 is 1.08 µM.

For `O=C(Nc1ccc(N2CCCCC2)cc1)c1ccccn1`, the half-inhibitory concentration (IC50) was 3.23 µM.

For `CCOC(=O)c1[nH]c(C)c(C(=O)Nc2cc(Cl)ccc2C)c1C`, the IC50 is 4.39 µM. The result for `COc1ccccc1NC(=O)Cn1nnc(C(=O)NCc2cccs2)c1N` reads 1.93 µM. Regarding `COc1ccc(NC(=O)C(=O)NCC2CCCN2S(=O)(=O)c2cccs2)cc1` (stereo not given), the IC50 is 21 µM (inactive).

`Cc1cc(-c2ccc(C)c(S(=O)(=O)N3CCN(c4ccc([N+](=O)[O-])cc4)CC3)c2)on1`: the IC50 is > 80 µM (inactive). For `Cc1c(C(=O)N/N=C/c2c(O)ccc3ccccc23)nnn1-c1nonc1N`, the IC50 was > 80 µM (inactive). Take `Cc1ccccc1NC1=C/C(=N\S(=O)(=O)c2cccs2)c2ccccc2C1=O`: the IC50 is 0.41 µM.

On to `CCCCCCCOc1ccc(OC(=O)c2ccncc2)cc1`, for which the IC50 is > 80 µM (inactive).

Take `CSc1nc(N(C)NC(=O)c2cccc(C)c2)c2ccccc2n1`: the IC50 was 4.16 µM.

In the case of `CC(=O)Nc1ccc(S(=O)(=O)N2c3ccc(F)cc3CCC2C)cc1` (stereo not given), the IC50 was 14.6 µM. Under `Cc1c(C(=O)OC2CCCC2)[nH]c2c1C(=O)CC(c1ccco1)C2` (stereo not given) stands 0.45 µM; under `CCOC(=O)C1CCN(S(=O)(=O)c2c(Cl)ccc3nonc23)CC1`, 10.7 µM. Take `Cc1cc(NC(=O)COC(=O)c2ccc(S(=O)(=O)N3CCCc4ccccc43)cc2)no1`: the IC50 is 28.3 µM (inactive).

With `COc1ccc(NC(=O)/C(Cl)=C(/Cl)S(=O)Cc2ccccc2)cn1` (stereo not given), the IC50 was 8.71 µM. As to `COc1cc(C2C(C#N)=C(N)Oc3cc(N(C)C)ccc32)cc2c1OCO2` (stereo not given), the IC50 is 3.56 µM.

These data come from PubChem BioAssay AID489041 (Sanford-Burnham Center for Chemical Genomics, 2010).
